Laboratory results taken from patent US10897898B2, “Herbicidal composition comprising cinmethylin and acetochlor or pretilachlor” (BASF Agro B.V., priority 2015, dated 2021).

What was measured:
Type in all cases: in vivo
Details in all cases: 20 DAT
Anthemis arvensis = assay: greenhouse pre-emergence herbicidal activity on ANTAR
Procedure: (§1) The test plants have been seeded, separately for each species, in plastic containers in sandy loamy soil containing 5% of organic matter.
(§2) The containers were irrigated gently to promote germination and growth and subsequently covered with transparent plastic hoods until the plants had rooted.
(§3) The plants have been cultivated due to their individual requirements at 10-25° C. and 20-35° C. The plants were irrigated due to their necessity.
(§4) The racemic mixture (±)-2-exo-(2-Methylbenzyloxy)-1-methyl-4-isopropyl-7-oxabicyclo[2.2.1]heptane was used as herbicide A and formulated as emulsifiable concentrates with an active ingredient concentration of 50 g/l, 100 g/l or 750 g/l respectively.
(§5) Acetochlor (herbicide B.1) was used as an encapsulated (CS) formulation having an active ingredient concentration of 400 g/l+67 g/l dichlormid as safener.
(§6) Pretilachlor (herbicide B.2) was used as emulsifiable concentrate (EC) formulation having an active ingredient concentration of 120 g/l.
(§7) In the following experiments, the herbicidal activity for the individual herbicidal compositions (solo and mixture applications) was assessed 20 days after treatment (DAT).
(§8) The evaluation for the damage on undesired weeds caused by the chemical compositions was carried out using a scale from 0 to 100%, compared to the untreated control plants. Here, 0 means no damage and 100 means complete destruction of the plants.
(§9) E=X+Y−(X·Y/100) where X=effect in percent using herbicide A at an application rate a; • Y=effect in percent using herbicide B at application rate b; • E=expected effect (in %) of herbicide A+herbicide B at application rates a+b.
(§10) The value E corresponds to the effect (plant damage or injury) which is to be expected if the activity of the individual compounds is additive. If the observed effect is higher than the value E calculated according to the Colby equation, a synergistic effect is present.
(§11) Tables 1 and 2 below relate to the herbicidal activity, in greenhouse trials, of the individual actives and the combinations applied at different rates and ratios, in pre-emergence application at 20 days after treatment (DAT).

Polygonum convolvulus = assay: greenhouse pre-emergence herbicidal activity on POLCO
Procedure: as §1, §2, §3, §4, §5, §6, §7, §8, §9, §10, §11

Abutilon theophrasti = assay: greenhouse pre-emergence herbicidal activity on ABUTH
Procedure: as §1, §2, §3, §4, §5, §6, §7, §8, §9, §10, §11

Chenopodium album = assay: greenhouse pre-emergence herbicidal activity on CHEAL
Procedure: as §1, §2, §3, §4, §5, §6, §7, §8, §9
(§12) The value E corresponds to the effect (plant damage or injury) which is to be expected if the activity of the individual compounds is additive. If the observed effect is higher than the value E calculated according to the Colby equation, a synergistic effect is present. […]

Lolium multiflorum = assay: greenhouse pre-emergence herbicidal activity on LOLMU
Procedure: as §1, §2, §3, §4, §5, §6, §7, §8, §9, §10, §11

Alopecurus myosuroides = assay: greenhouse pre-emergence herbicidal activity on ALOMY
Procedure: as §1, §2, §3, §4, §5, §6, §7, §8, §9, §10, §11

Stellaria media = assay: greenhouse pre-emergence herbicidal activity on STEME
Procedure: as §1, §2, §3, §4, §5, §6, §7, §8, §9, §10, §11

Avena fatua = assay: greenhouse pre-emergence herbicidal activity on AVEFA
Procedure: as §1, §2, §3, §4, §5, §6, §7, §8, §9, §10, §11

Echinochloa crus-galli = assay: greenhouse pre-emergence herbicidal activity on ECHCG
Procedure: as §1, §2, §3, §4
Acetochlor (herbicide B.1) was used as an encapsulated (CS) formulation having an active ingredient concentration of 400 g/l+67 g/l dichlormid as safener. […]
In the following experiments, the herbicidal activity for the individual herbicidal compositions (solo and mixture applications) was assessed 20 days after treatment (DAT). […]
as §12

Geranium dissectum = assay: greenhouse pre-emergence herbicidal activity on GERDI
Procedure: as §1, §2, §3, §4, §5, §6, §7, §8, §9, §10, §11

Sorghum halepense = assay: greenhouse pre-emergence herbicidal activity on SORHA
Procedure: as §1, §2, §3, §4, §5, §6, §7, §8, §9, §10, §11

Setaria viridis = assay: greenhouse pre-emergence herbicidal activity on SETVI
Procedure: as §1, §2, §3, §4, §5, §6, §7, §8, §9, §10, §11

## CCOCN(C(=O)CCl)c1c(C)cccc1CC [acetochlor, 2-chloro-N-(ethoxymethyl)-N-(2-ethyl-6-methylphenyl)acetamide]
Anthemis arvensis; 63 g ai/ha
  herbicidal activity, solo application acetochlor: 35%
Anthemis arvensis; 125 g ai/ha
  herbicidal activity, solo application acetochlor: 70%
Anthemis arvensis; 250 g ai/ha
  herbicidal activity, solo application acetochlor: 80%
Anthemis arvensis; 500 g ai/ha
  herbicidal activity, solo application acetochlor: 90%
Polygonum convolvulus; 125 g ai/ha
  herbicidal activity, solo application acetochlor: 0%
Polygonum convolvulus; 250 g ai/ha
  herbicidal activity, solo application acetochlor: 20%
Polygonum convolvulus; 500 g ai/ha
  herbicidal activity, solo application acetochlor: 40%
Abutilon theophrasti; 63 g ai/ha
  herbicidal activity, solo application acetochlor: 0%
Abutilon theophrasti; 125 g ai/ha
  herbicidal activity, solo application acetochlor: 0%
Chenopodium album; 63 g ai/ha
  herbicidal activity, solo application acetochlor: 40%
Lolium multiflorum; 63 g ai/ha
  herbicidal activity, solo application acetochlor: 70%
Lolium multiflorum; 250 g ai/ha
  herbicidal activity, solo application acetochlor: 95%
Alopecurus myosuroides; 63 g ai/ha
  herbicidal activity, solo application acetochlor: 50%
Stellaria media; 250 g ai/ha
  herbicidal activity, solo application acetochlor: 98%
Avena fatua; 63 g ai/ha
  herbicidal activity, solo application acetochlor: 20%
Avena fatua; 125 g ai/ha
  herbicidal activity, solo application acetochlor: 70%
Avena fatua; 250 g ai/ha
  herbicidal activity, solo application acetochlor: 70%
Avena fatua; 500 g ai/ha
  herbicidal activity, solo application acetochlor: 80%

## (±)-2-exo-(2-Methylbenzyloxy)-1-methyl-4-isopropyl-7-oxabicyclo[2.2.1]heptane [herbicide A]
Anthemis arvensis; 31.25 g ai/ha
  herbicidal activity, solo application herbicide A: 0%
Anthemis arvensis; 62.5 g ai/ha
  herbicidal activity, solo application herbicide A: 0%
Anthemis arvensis; 125 g ai/ha
  herbicidal activity, solo application herbicide A: 0%
Anthemis arvensis; 250 g ai/ha
  herbicidal activity, solo application herbicide A: 30%
Polygonum convolvulus; 62.5 g ai/ha
  herbicidal activity, solo application herbicide A: 0%
Polygonum convolvulus; 125 g ai/ha
  herbicidal activity, solo application herbicide A: 0%
Polygonum convolvulus; 250 g ai/ha
  herbicidal activity, solo application herbicide A: 15%
Echinochloa crus-galli; 31.25 g ai/ha
  herbicidal activity, solo application herbicide A: 98%
Abutilon theophrasti; 31.25 g ai/ha
  herbicidal activity, solo application herbicide A: 30%
Abutilon theophrasti; 62.5 g ai/ha
  herbicidal activity, solo application herbicide A: 60%
Geranium dissectum; 31.25 g ai/ha
  herbicidal activity, solo application herbicide A: 50%
Geranium dissectum; 62.5 g ai/ha
  herbicidal activity, solo application herbicide A: 60%
Geranium dissectum; 125 g ai/ha
  herbicidal activity, solo application herbicide A: 60%
Chenopodium album; 31.25 g ai/ha
  herbicidal activity, solo application herbicide A: 40%
Sorghum halepense; 62.5 g ai/ha
  herbicidal activity, solo application herbicide A: 80%
Sorghum halepense; 125 g ai/ha
  herbicidal activity, solo application herbicide A: 95%
Sorghum halepense; 250 g ai/ha
  herbicidal activity, solo application herbicide A: 98%
Lolium multiflorum; 31.25 g ai/ha
  herbicidal activity, solo application herbicide A: 60%
Lolium multiflorum; 62.5 g ai/ha
  herbicidal activity, solo application herbicide A: 75%
Lolium multiflorum; 125 g ai/ha
  herbicidal activity, solo application herbicide A: 85%
Setaria viridis; 31.25 g ai/ha
  herbicidal activity, solo application herbicide A: 90%
Setaria viridis; 62.5 g ai/ha
  herbicidal activity, solo application herbicide A: 98%
Setaria viridis; 125 g ai/ha
  herbicidal activity, solo application herbicide A: 98%
Alopecurus myosuroides; 31.25 g ai/ha
  herbicidal activity, solo application herbicide A: 98%
Alopecurus myosuroides; 62.5 g ai/ha
  herbicidal activity, solo application herbicide A: 98%
Alopecurus myosuroides; 125 g ai/ha
  herbicidal activity, solo application herbicide A: 98%
Stellaria media; 31.25 g ai/ha
  herbicidal activity, solo application herbicide A: 30%
Stellaria media; 62.5 g ai/ha
  herbicidal activity, solo application herbicide A: 30%
Stellaria media; 125 g ai/ha
  herbicidal activity, solo application herbicide A: 40%
Avena fatua; 31.25 g ai/ha
  herbicidal activity, solo application herbicide A: 0%
Avena fatua; 62.5 g ai/ha
  herbicidal activity, solo application herbicide A: 0%
Avena fatua; 125 g ai/ha
  herbicidal activity, solo application herbicide A: 25%
Avena fatua; 250 g ai/ha
  herbicidal activity, solo application herbicide A: 35%

## CCCOCCN(C(=O)CCl)c1c(CC)cccc1CC [pretilachlor, 2-chloro-N-(2,6-diethylphenyl)-N-(2-propoxyethyl)acetamide]
Anthemis arvensis; 31.3 g ai/ha
  herbicidal activity, solo application pretilachlor: 20%
Anthemis arvensis; 63 g ai/ha
  herbicidal activity, solo application pretilachlor: 20%
Anthemis arvensis; 125 g ai/ha
  herbicidal activity, solo application pretilachlor: 30%
Anthemis arvensis; 250 g ai/ha
  herbicidal activity, solo application pretilachlor: 30%
Polygonum convolvulus; 63 g ai/ha
  herbicidal activity, solo application pretilachlor: 15%
Polygonum convolvulus; 125 g ai/ha
  herbicidal activity, solo application pretilachlor: 20%
Echinochloa crus-galli; 31.3 g ai/ha
  herbicidal activity, solo application pretilachlor: 20%
Geranium dissectum; 31.3 g ai/ha
  herbicidal activity, solo application pretilachlor: 0%
Geranium dissectum; 63 g ai/ha
  herbicidal activity, solo application pretilachlor: 0%
Geranium dissectum; 125 g ai/ha
  herbicidal activity, solo application pretilachlor: 20%
Chenopodium album; 31.3 g ai/ha
  herbicidal activity, solo application pretilachlor: 30%
Sorghum halepense; 63 g ai/ha
  herbicidal activity, solo application pretilachlor: 20%
Sorghum halepense; 125 g ai/ha
  herbicidal activity, solo application pretilachlor: 30%
Sorghum halepense; 250 g ai/ha
  herbicidal activity, solo application pretilachlor: 55%
Lolium multiflorum; 31.3 g ai/ha
  herbicidal activity, solo application pretilachlor: 0%
Lolium multiflorum; 63 g ai/ha
  herbicidal activity, solo application pretilachlor: 0%
Lolium multiflorum; 125 g ai/ha
  herbicidal activity, solo application pretilachlor: 25%
Setaria viridis; 31.3 g ai/ha
  herbicidal activity, solo application pretilachlor: 25%
Setaria viridis; 63 g ai/ha
  herbicidal activity, solo application pretilachlor: 50%
Setaria viridis; 125 g ai/ha
  herbicidal activity, solo application pretilachlor: 60%
Alopecurus myosuroides; 63 g ai/ha
  herbicidal activity, solo application pretilachlor: 40%
Alopecurus myosuroides; 125 g ai/ha
  herbicidal activity, solo application pretilachlor: 40%
Stellaria media; 31.3 g ai/ha
  herbicidal activity, solo application pretilachlor: 30%
Stellaria media; 63 g ai/ha
  herbicidal activity, solo application pretilachlor: 25%
Stellaria media; 125 g ai/ha
  herbicidal activity, solo application pretilachlor: 30%
Avena fatua; 63 g ai/ha
  herbicidal activity, solo application pretilachlor: 15%
Avena fatua; 125 g ai/ha
  herbicidal activity, solo application pretilachlor: 20%
Avena fatua; 250 g ai/ha
  herbicidal activity, solo application pretilachlor: 25%
